Experimental findings from article PMC3658274, “Characterization of drug-induced transcriptional modules: towards drug repositioning and functional understanding” (Molecular Systems Biology, 2013) are described below.

Some results are limits rather than exact numbers.

One assay addresses T1, ADRA1B (Homo sapiens, UniProt P35368).
T1 sequence (P35368 1-520): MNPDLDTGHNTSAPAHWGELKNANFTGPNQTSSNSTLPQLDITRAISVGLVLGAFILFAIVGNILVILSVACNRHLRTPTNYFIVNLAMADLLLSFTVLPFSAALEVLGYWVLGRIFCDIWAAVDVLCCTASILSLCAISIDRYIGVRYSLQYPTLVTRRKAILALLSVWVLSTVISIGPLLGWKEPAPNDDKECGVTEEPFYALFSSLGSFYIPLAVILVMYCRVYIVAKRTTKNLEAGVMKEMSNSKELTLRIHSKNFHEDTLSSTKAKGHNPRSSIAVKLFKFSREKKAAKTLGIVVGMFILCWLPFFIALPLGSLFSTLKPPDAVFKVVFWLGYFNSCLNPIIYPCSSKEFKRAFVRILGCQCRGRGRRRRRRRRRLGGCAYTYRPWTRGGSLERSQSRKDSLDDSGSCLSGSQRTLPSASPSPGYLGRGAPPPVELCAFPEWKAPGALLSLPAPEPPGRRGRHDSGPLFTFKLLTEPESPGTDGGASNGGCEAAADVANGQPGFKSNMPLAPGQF
Nature of the assay: cell-based. The note with it: read-out: Agonist. The arrangement: Cerep cellular alpha1B adrenergic receptor agonist effect assay (ref. 1901). The method, then:
(§1) In vitro binding assays were performed by the company Cerep for α-2 adrenergic receptor (agonist, ref. 3443), estrogen receptor-α(ERα, agonist, ref. 0484) and PPARγ (agonist, ref. 0641). Similarly, Cerep carried out the cellular assays of 2C-1 adrenergic receptor (α1B, agonist effect, ref. 1901) and ERα (antagonistic effect, ref. 3495). […] The effect of chemicals were initially evaluated at 50 μM, and Ki values were further determined for chemicals with more than 40% activity in initial assessment. As explained above, R package ‘drc’ ([Ritz and Streibig, 2005]) was utilized to calculate IC50 values using a two-parametric log-logistic function with 0% as minimum and 100% as maximum. Ki values were generated from the IC50 values using Cheng–Prusoff equation.

For assay [1], the target named is T2, ADRA2C (α-2 adrenergic receptor) (Homo sapiens, UniProt P18825).
T2 sequence (P18825 1-462): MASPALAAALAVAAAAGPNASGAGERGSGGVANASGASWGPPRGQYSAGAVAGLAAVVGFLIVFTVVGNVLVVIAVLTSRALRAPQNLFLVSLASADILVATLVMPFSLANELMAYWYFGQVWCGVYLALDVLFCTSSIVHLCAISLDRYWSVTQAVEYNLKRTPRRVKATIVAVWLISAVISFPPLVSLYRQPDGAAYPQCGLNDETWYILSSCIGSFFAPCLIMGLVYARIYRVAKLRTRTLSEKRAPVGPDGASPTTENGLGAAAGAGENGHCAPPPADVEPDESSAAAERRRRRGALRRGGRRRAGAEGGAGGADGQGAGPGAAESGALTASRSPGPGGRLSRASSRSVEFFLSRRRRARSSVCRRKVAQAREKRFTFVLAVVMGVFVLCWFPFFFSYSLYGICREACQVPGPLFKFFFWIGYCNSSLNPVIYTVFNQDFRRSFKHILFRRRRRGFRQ
Nature of the assay: biochemical. The arrangement: Cerep in vitro receptor binding assay (agonist ligand), per cent inhibition at 50 uM and Ki by Cheng-Prusoff. The note with it: read-out: % inhibition. The method, then:
as §1

Assay [2] deals with T3, estrogen receptor-α (ERα) (Homo sapiens, UniProt P03372).
T3 construct: gene ESR1
Description: in vitro binding assay (Cerep, agonist, ref. […]), Ki from IC50 by Cheng-Prusoff; authors call it ambiguous.

For assay [3], the target named is T4, estrogen receptor-α (ERα) (Homo sapiens, UniProt P03372).
T4 construct: gene ESR1
T4 sequence (P03372 1-595): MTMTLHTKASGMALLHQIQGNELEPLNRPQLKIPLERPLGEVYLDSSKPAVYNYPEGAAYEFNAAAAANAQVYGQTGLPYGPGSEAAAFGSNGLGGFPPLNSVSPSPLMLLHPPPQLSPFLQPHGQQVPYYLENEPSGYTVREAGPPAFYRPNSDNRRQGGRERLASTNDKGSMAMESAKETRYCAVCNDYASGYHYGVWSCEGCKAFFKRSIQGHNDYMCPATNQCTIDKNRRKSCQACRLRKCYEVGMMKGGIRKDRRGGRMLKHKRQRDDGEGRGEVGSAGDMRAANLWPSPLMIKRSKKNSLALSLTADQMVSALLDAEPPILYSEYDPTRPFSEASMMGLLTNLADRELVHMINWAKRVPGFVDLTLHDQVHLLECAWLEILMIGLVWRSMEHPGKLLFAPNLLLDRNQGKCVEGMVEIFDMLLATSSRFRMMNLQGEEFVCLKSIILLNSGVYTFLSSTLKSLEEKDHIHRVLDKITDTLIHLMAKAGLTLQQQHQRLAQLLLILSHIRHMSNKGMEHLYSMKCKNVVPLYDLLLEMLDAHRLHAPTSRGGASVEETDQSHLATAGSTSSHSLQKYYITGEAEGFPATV
Description: biochemical. Further details: Cerep in vitro receptor binding assay (agonist ligand), per cent inhibition at 50 uM and Ki by Cheng-Prusoff. To be noted: read-out: % inhibition.

In assay [4] the target is T5, PPARγ (peroxisome proliferator-activated receptor subtype-γ) (Homo sapiens, UniProt P37231).
T5 construct: gene PPARG
T5 sequence (P37231 1-505): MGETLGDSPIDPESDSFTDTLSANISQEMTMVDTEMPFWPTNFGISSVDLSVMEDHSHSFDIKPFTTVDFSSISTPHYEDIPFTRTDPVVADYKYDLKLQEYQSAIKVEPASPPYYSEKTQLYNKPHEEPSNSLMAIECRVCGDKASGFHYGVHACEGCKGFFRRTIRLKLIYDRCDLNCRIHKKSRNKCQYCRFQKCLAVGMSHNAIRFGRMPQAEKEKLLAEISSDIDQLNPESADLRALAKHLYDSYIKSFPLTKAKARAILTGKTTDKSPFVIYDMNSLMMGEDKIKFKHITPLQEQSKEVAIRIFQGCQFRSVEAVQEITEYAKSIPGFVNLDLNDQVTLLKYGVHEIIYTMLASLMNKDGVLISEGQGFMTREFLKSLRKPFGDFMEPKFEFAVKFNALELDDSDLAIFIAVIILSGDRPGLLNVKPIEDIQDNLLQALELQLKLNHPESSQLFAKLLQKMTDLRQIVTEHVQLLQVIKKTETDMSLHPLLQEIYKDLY
Nature of the assay: in vitro binding assay (Cerep, agonist, ref. […]), Ki from IC50 by Cheng-Prusoff.

Assay [5] addresses T5, PPARγ (peroxisome proliferator-activated receptor subtype-γ). Nature of the assay: biochemical. Further details: Cerep in vitro receptor binding assay (agonist ligand), per cent inhibition at 50 uM and Ki by Cheng-Prusoff. To be noted: read-out: % inhibition. The method, then:
as §1

In assay [6] the target is T4, estrogen receptor-α (ERα). Description: cell-based. The arrangement: Cerep cellular ER alpha antagonist effect assay (ref. 3495). The note with it: read-out: Antag./Inhibitor. The method, then: as §1
The next assay concerns MCF7. Nature of the assay: cells. The arrangement: Cell viability, Alamar Blue fluorescence. To be noted: Homo sapiens, MCF7, 72 h. The method, then:
(§2) HL60 (CPQ-054) was cultured as suspension cells in RPMI-1640 containing 10% FCS and penicillin/streptomycin. MCF7 (CPQ-072) cells were cultured as adherent cells in DMEM containing 10% FCS and penicillin/streptomycin. Cells were cultured at 37 °C in an atmosphere of 5% (HL60) or 10% (MCF7) CO2. For the assays, cells (5000 cells/well) were seeded in 150 μl medium on a 96-well cell culture plate and incubated overnight at 37 °C. The next day, cells were treated with different concentrations of selected chemicals from CMap. After 72 h, the viability of treated cells was measured after incubation for 4 h with the indicator dye Alamar Blue and fluorescence measurement at 590 nm. The single concentration of mephentermine (50 μM) was tested in quadruplicates. The IC50 curves for the predicted compounds (sulconazole, vinburnine) and their corresponding negative controls (butoconazole, moxisylyte hydrochloride) were prepared in eight semilog dilutions starting at 1E-5M and tested in duplicates. The reference compound staurosporine was prepared in eight decalog dilutions starting at 1E-5M. Standard solvent controls were performed using 0.1% DMSO. Treatment of cells with 0.1% DMSO and 1E-5M staurosporine served as high control (100% viability) and low control (0% viability), respectively. Raw data were converted into percent viability relative to high controls (solvent 0.1% DMSO) and low controls (1E-05M staurosporine), which were set to 100 and 0%, respectively. IC50 values were calculated using R package ‘drc’ ([Ritz and Streibig, 2005]) by fitting dose response data to a two-parametric log-logistic function with 0% growth as bottom constraint and 100% growth as top constraint. For cell cycle analysis, HL60 cells (ATCC CCL-240) were grown for 6 h with an initial concentration of 0.4 Mio/ml in 3 ml of medium before sulconazole (25 μM) and vinburnine (25 μM) (nocodazole, 200ng/ml as reference) were added. For three time points (24, 48 and 72 h), (un)treated cells were collected, fixed in 80% methanol for 24 h and further rehydrated in PBS/1%FCS at room temperature for 30 min before RNAse A (100 μg/ml) and PI (50 μg/ml) treatment. FACS (FACSCalibur, BD Biosciences) was empl

A further assay relates to HL60. Description: cells. To be noted: Homo sapiens, HL-60, 72 h. Further details: Cell viability, Alamar Blue fluorescence. The method, then: as §2

Consider `COc1cc([C@@H]2c3cc4c(cc3[C@H](O)[C@H]3COC(=O)[C@H]23)OCO4)cc(OC)c1OC` [Podophyllotoxin], for which, on ADRA1B, the activity at 50 µM was less than 20%. Besides, the inhibition at 50 µM in assay [1] was less than 20%.

Regarding `C=CC(N)CCC(=O)O` (stereo not shown) [Vigabatrin], the activity at 50 µM on ADRA1B was less than 20%. In addition, the inhibition at 50 µM in assay [1] was less than 20%.

Turning to `CCCCC(CC)CN1CN(CC(CC)CCCC)CC(C)(N)C1` (stereo not shown) [hexetidine], the activity at 50 µM on ADRA1B is less than 20%. Further, the inhibition at 50 µM in assay [1] was determined as 59%. Turning to `CCOC(=O)C1=C(C)NC(C)=C(C(=O)OC)C1c1cccc([N+](=O)[O-])c1` (stereo not shown) [nitrendipine], the Ki in [2] was approximately 46 µM. Moreover, the inhibition at 50 µM in assay [3] turned out to be 49%.

Regarding `CCCOc1ccccc1-c1nc2nn[nH]c2c(=O)[nH]1` [zaprinast], in assay [4], the affinity, expressed as Ki, was 14 µM. In addition, in [5], the inhibition at 50 µM came out at 57%. For `COc1cc(C(=O)OCCCN2CCCN(CCCOC(=O)c3cc(OC)c(OC)c(OC)c3)CC2)cc(OC)c1OC` [Dilazep], the inhibition at 50 µM in assay [6] came to 26.3%. As for `Clc1ccc(CCC(Cn2ccnc2)Sc2c(Cl)cccc2Cl)cc1` (stereo not shown) [Butoconazole], the IC50 with MCF7 is 23 µM; in the assay on HL60, 3.9 µM. On the same counts, the results for `CC(=O)Oc1cc(C(C)C)c(OCCN(C)C)cc1C` [Moxisylyte] are more than 50 µM and more than 50 µM. `COC(=O)C1=CO[C@@H](C)[C@H]2CN3CCc4c([nH]c5ccccc45)[C@@H]3C[C@H]12` [Raubasine]: the inhibition at 50 µM in assay [5] is less than 20%.
